Assay results published in US6613718B2, “Aryl ether derivatives and processes for their preparation and herbicidal and desiccant compositions containing them” (Ishihara Sangyo Kaisha, Ltd., priority 2001, dated 2003).

How the values were obtained:
Type in all cases: in vivo
Conditions in all cases: 14 days after application
[1] = system: large crabgrass (Digitaria sanguinalis, DIGSA); assay: Post-emerge greenhouse herbicide activity screening, phytotoxicity rating
Outline: (§1)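 Greenhouse screen. Sowing preceded application by one day (pre-emergence) or 8-21 days (post-emergence). Doses spanned 15 to 1000 g ai/ha in acetone. Score at day 14: 0 no injury, 100 total kill.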

[2] = system: velvetleaf (Abutilon theophrasti, ABUTH); assay: as above
Outline: as §1

[3] = system: barnyardgrass (Echinochloa crus-galli, ECHCG); assay: as above
Outline: as §1

[4] = system: lambsquarters (Chenopodium album, CHEAL); assay: as above
Outline: as §1

[5] = system: redroot pigweed (Amaranthus retroflexus, AMARE); assay: as above
Outline: as §1

[6] = system: ivyleaf morningglory (Ipomoea hederacea, IPOHE); assay: as above
Outline: as §1

[7] = system: sicklepod (Cassia obtusifolia, CASOB); assay: as above
Outline: as §1

[8] = system: johnsongrass (Sorghum halepense, SORHA); assay: as above
Outline: as §1

[9] = system: common ragweed (Ambrosia artemisiifolia L., AMBEL); assay: as above
Outline: as §1

[10] = system: green foxtail (Setaria viridis, SETVI); assay: as above
Outline: as §1

[11] = system: large crabgrass (Digitaria sanguinalis, DIGSA); assay: Pre-emerge greenhouse herbicide activity screening, phytotoxicity rating
Outline: as §1

[12] = system: velvetleaf (Abutilon theophrasti, ABUTH); assay: as above
Outline: as §1

[13] = system: barnyardgrass (Echinochloa crus-galli, ECHCG); assay: as above
Outline: as §1

[14] = system: lambsquarters (Chenopodium album, CHEAL); assay: as above
Outline: as §1

[15] = system: redroot pigweed (Amaranthus retroflexus, AMARE); assay: as above
Outline: as §1

[16] = system: ivyleaf morningglory (Ipomoea hederacea, IPOHE); assay: as above
Outline: as §1

[17] = system: sicklepod (Cassia obtusifolia, CASOB); assay: as above
Outline: as §1

[18] = system: johnsongrass (Sorghum halepense, SORHA); assay: as above
Outline: as §1

[19] = system: common ragweed (Ambrosia artemisiifolia L., AMBEL); assay: as above
Outline: as §1

[20] = system: green foxtail (Setaria viridis, SETVI); assay: as above
Outline: as §1

[21] = system: field corn (Zea mays L., var. Dekalb 535, CORN); assay: Post-emerge greenhouse screening, crop safety / corn selectivity (phytotoxicity rating)
Outline: as §1

[22] = system: upland rice (Oryza sp., var.Tebonnet, RICE); assay: Pre-emerge greenhouse screening, crop safety (phytotoxicity rating)
Outline: as §1

[23] = system: field corn (Zea mays L., var. Dekalb 535, CORN); assay: as above
Outline: as §1

[24] = system: soybean (Glycine max L., var. Pella 86, SOY); assay: as above
Outline: as §1

[25] = system: upland rice (Oryza sp., var.Tebonnet, RICE); assay: Post-emerge greenhouse screening, crop safety (phytotoxicity rating)
Outline: as §1

[26] = system: soybean (Glycine max L., var. Pella 86, SOY); assay: as above
Outline: as §1

COc1ccc(Oc2cc(-n3c(=O)cc(C(F)(F)F)n(C)c3=S)c(F)cc2C#N)cc1 [Compound 1-72]
5: CORN crop damage, phytotoxicity rating (0-100 scale) ([23]; 125 g ai/ha)
100: CHEAL phytotoxicity rating (0-100 scale) ([4]; 125 g ai/ha) | CHEAL phytotoxicity rating (0-100 scale) ([4]; 250 g ai/ha) | ABUTH phytotoxicity rating (0-100 scale) ([12]; 125 g ai/ha) | ABUTH phytotoxicity rating (0-100 scale) ([12]; 250 g ai/ha) | CHEAL phytotoxicity rating (0-100 scale) ([14]; 125 g ai/ha) | CHEAL phytotoxicity rating (0-100 scale) ([14]; 250 g ai/ha) | AMARE phytotoxicity rating (0-100 scale) ([15]; 125 g ai/ha) | AMARE phytotoxicity rating (0-100 scale) ([15]; 250 g ai/ha) | IPOHE phytotoxicity rating (0-100 scale) ([16]; 250 g ai/ha) | CASOB phytotoxicity rating (0-100 scale) ([17]; 250 g ai/ha)
99: DIGSA phytotoxicity rating (0-100 scale) ([11]; 250 g ai/ha)
40: SOY crop damage, phytotoxicity rating (0-100 scale) ([24]; 250 g ai/ha)
80: ABUTH phytotoxicity rating (0-100 scale) ([2]; 125 g ai/ha) | AMARE phytotoxicity rating (0-100 scale) ([5]; 125 g ai/ha) | ECHCG phytotoxicity rating (0-100 scale) ([13]; 250 g ai/ha) | SETVI phytotoxicity rating (0-100 scale) ([20]; 250 g ai/ha)
90: ABUTH phytotoxicity rating (0-100 scale) ([2]; 250 g ai/ha) | AMARE phytotoxicity rating (0-100 scale) ([5]; 250 g ai/ha)
65: CASOB phytotoxicity rating (0-100 scale) ([17]; 125 g ai/ha)
8: CORN crop damage, phytotoxicity rating (0-100 scale) ([23]; 250 g ai/ha)
0: DIGSA phytotoxicity rating (0-100 scale) ([1]; 125 g ai/ha) | DIGSA phytotoxicity rating (0-100 scale) ([1]; 250 g ai/ha) | ECHCG phytotoxicity rating (0-100 scale) ([3]; 125 g ai/ha) | ECHCG phytotoxicity rating (0-100 scale) ([3]; 250 g ai/ha) | CASOB phytotoxicity rating (0-100 scale) ([7]; 125 g ai/ha) | CASOB phytotoxicity rating (0-100 scale) ([7]; 250 g ai/ha) | SORHA phytotoxicity rating (0-100 scale) ([8]; 125 g ai/ha) | SORHA phytotoxicity rating (0-100 scale) ([8]; 250 g ai/ha) | AMBEL phytotoxicity rating (0-100 scale) ([9]; 125 g ai/ha) | AMBEL phytotoxicity rating (0-100 scale) ([9]; 250 g ai/ha) | SETVI phytotoxicity rating (0-100 scale) ([10]; 125 g ai/ha) | SETVI phytotoxicity rating (0-100 scale) ([10]; 250 g ai/ha) | CORN crop damage, phytotoxicity rating (0-100 scale) ([21]; 125 g ai/ha) | CORN crop damage, phytotoxicity rating (0-100 scale) ([21]; 250 g ai/ha) | RICE crop damage, phytotoxicity rating (0-100 scale) ([22]; 125 g ai/ha) | RICE crop damage, phytotoxicity rating (0-100 scale) ([22]; 250 g ai/ha) | SOY crop damage, phytotoxicity rating (0-100 scale) ([24]; 125 g ai/ha) | RICE crop damage, phytotoxicity rating (0-100 scale) ([25]; 125 g ai/ha) | RICE crop damage, phytotoxicity rating (0-100 scale) ([25]; 250 g ai/ha) | SOY crop damage, phytotoxicity rating (0-100 scale) ([26]; 125 g ai/ha) | SOY crop damage, phytotoxicity rating (0-100 scale) ([26]; 250 g ai/ha)
20: ECHCG phytotoxicity rating (0-100 scale) ([13]; 125 g ai/ha) | SETVI phytotoxicity rating (0-100 scale) ([20]; 125 g ai/ha)
60: IPOHE phytotoxicity rating (0-100 scale) ([6]; 125 g ai/ha) | IPOHE phytotoxicity rating (0-100 scale) ([6]; 250 g ai/ha) | SORHA phytotoxicity rating (0-100 scale) ([18]; 125 g ai/ha) | SORHA phytotoxicity rating (0-100 scale) ([18]; 250 g ai/ha)
95: DIGSA phytotoxicity rating (0-100 scale) ([11]; 125 g ai/ha) | IPOHE phytotoxicity rating (0-100 scale) ([16]; 125 g ai/ha) | AMBEL phytotoxicity rating (0-100 scale) ([19]; 125 g ai/ha) | AMBEL phytotoxicity rating (0-100 scale) ([19]; 250 g ai/ha)
